Test results reported in patent US20200197472A1, “COSMETIC COMPOSITIONS” (Mary Kay Inc., priority 2018, published 2020).

How the values were obtained:
Type in all cases: cell-based
hyaluronic acid = test: Production of hyaluronic acid in adult human dermal fibroblasts (HDFa), ELISA; conditions: for Hyaluronic Acid Production, Activity compared to control: HDFa cells, 24 hours
Method: Changes in the production of hyaluronic acid in human dermal fibroblasts due to each of Centella asiatica meristem cell culture, Alpinia galangal leaf extract, tripeptide-1, and TAUT were measured. Hyaluronic acid (HA) is a polysaccharide involved in stabilization of the structure of the matrix and is involved in providing turgor pressure to tissue and cells. As one non-limiting example, HA production in treated and non-treated adult human dermal fibroblasts (HDFa) cells was determined using the Hyaluronan DuoSet ELISA kit from R&D Systems (DY3614). In this assay, for production of samples, subconfluent HDFa cells from Cascade Biologics (C-13-5C) were incubated at 37° C. and 10% CO2 in starvation medium (0.15% fetal bovine serum and 1% Penicillin Streptomycin solution in Dulbecco's Modified Eagle Medium) for 72 hours prior to treatment. The cells were then incubated with fresh starvation medium with either test compound, positive control (phorbol 12-myristate 13-acetate from Sigma-Aldrich (P1585) and platelet derived growth factor from Sigma-Aldrich (P3201)), or no additive for 24 hours. Media was then collected and frozen at −80° C. until use in the ELISA assay.
Briefly, the ELISA assay employed a quantitative sandwich enzyme immunoassay technique whereby a capture antibody specific for HA can be pre-coated onto a microplate. Standards and media from treated and untreated cells were pipetted into the microplate wells to enable any HA present to be bound by the immobilized antibody. After washing away any unbound substances, an enzyme-linked detection antibody specific for HA was added to the wells. Following a wash to remove any unbound antibody-enzyme reagent, a substrate solution was added to the wells to allow color development in proportion to the amount of HA bound in the initial step. The color development was stopped at a specific time and the intensity of the color at 450 nm was measured using a microplate reader.

procollagen peptide = test: Collagen stimulation: procollagen peptide production by human epidermal fibroblasts (ELISA); conditions: for Collagen Production, Activity compared to control: human fibroblasts treated 3 days
Description: Collagen is an extracellular matrix protein critical for skin structure. Increased synthesis of collagen helps improve skin firmness and elasticity. This bioassay was used to examine the effect of Alpinia galangal leaf extract, dihydroxymethyl chromone, tripeptide-1, Alteromonas ferment filtrate, Pisum Sativum (pea) extract, and/or TAUT on the production of procollagen peptide (a precursor to collagen) by human epidermal fibroblasts. The endpoint of this assay was a spectrophotometric measurement that reflects the presence of procollagen peptide and cellular viability. The assay employed the quantitative sandwich enzyme immunoassay technique whereby a monoclonal antibody specific for procollagen peptide had been pre-coated onto a microplate. Standards and samples were pipetted into the wells and any procollagen peptide present was bound by the immobilized antibody. After washing away any unbound substances, an enzyme-linked polyclonal antibody specific for procollagen peptide was added to the wells. Following a wash to remove any unbound antibody-enzyme reagent, a substrate solution was added to the wells and color develops in proportion to the amount of procollagen peptide bound in the initial step using a microplate reader for detection at 450 nm. The color development was stopped and the intensity of the color was measured.
For generation of samples and controls, subconfluent normal human adult epidermal fibroblasts (Cascade Biologics) cultivated in standard DMEM growth medium with 10% fetal bovine serum (Mediatech) at 37° C. in 10% CO2, were treated with each of the ingredients for 3 days. Following incubation, cell culture medium was collected and the amount of procollagen peptide secretion quantified using a sandwich enzyme linked immuno-sorbant assay (ELISA) from Takara (# MK101).

fibronectin = test: Fibronectin secretion by cultured human fibroblasts (ELISA); conditions: 3 days, 1.0% final concentration
Description: Laminin and fibronectin are major proteins in the dermal-epidermal junction (DEJ) (also referred to as the basement membrane). The DEJ is located between the dermis and the epidermis interlocks forming fingerlike projections called rete ridges. The cells of the epidermis receive their nutrients from the blood vessels in the dermis. The rete ridges increase the surface area of the epidermis that is exposed to these blood vessels and the needed nutrients. The DEJ provides adhesion of the two tissue compartments and governs the structural integrity of the skin. Laminin and fibronectin are two structural glycoproteins located in the DEJ. […] Laminin and fibronectin secretion was monitored by quantifying laminin and fibronectin in cell supernatants of cultured human fibroblasts treated for 3 days with culture medium with or without 1.0% final concentration of the test ingredient(s). Following incubation, laminin and fibronectin contents were measured using immunofluorescent antibodies directed against each protein in an enzyme linked immuno-sorbant assay (ELISA). Measurements were normalized for cellular metabolic activity, as determined by bioconversion of 3-(4,5-dimethylthiazol-2-yl)-5-(3-carboxymethoxyphenyl)-2-(4-sulfophenyl)-2H-tetrazolium (MTS).

TNF-α = test: Inhibition of TNF-α production by PMA-treated human epidermal keratinocytes (ELISA)
Description: The prototype ligand of the TNF superfamily, TNF-α, is a pleiotropic cytokine that plays a central role in inflammation. Increase in its expression is associated with an up regulation in pro-inflammatory activity. This bioassay was used to analyze the effect of tetradecyl aminobutyroylvalylaminobutyric urea trifluoroacetate, and/or Alteromonas ferment filtrate on the production of TNF-α by human epidermal keratinocytes. The endpoint of this assay was a spectrophotometric measurement that reflects the presence of TNF-α and cellular viability. The assay employed the quantitative sandwich enzyme immunoassay technique whereby a monoclonal antibody specific for TNF-α has been pre-coated onto a microplate. Standards and samples were pipetted into the wells and any TNF-α present was bound by the immobilized antibody. After washing away any unbound substances, an enzyme-linked polyclonal antibody specific for TNF-α was added to the wells. Following a wash to remove any unbound antibody-enzyme reagent, a substrate solution was added to the wells and color develops in proportion to the amount of TNF-α bound in the initial step using a microplate reader for detection at 450 nm. The color development was stopped and the intensity of the color can be measured. […]

Compound	production of hyaluronic acid (in words) (hyaluronic acid)	Hyaluronic Acid Production, Activity compared to control (hyaluronic acid)	production of collagen (in words) (procollagen peptide)	Collagen Production, Activity compared to control (procollagen peptide)	Fibronectin Secretion, Activity compared to control (fibronectin)	production of TNF-α (in words) (TNF-α)	TNF-α Production, Activity compared to control (TNF-α; compared to PMA, human keratinocytes, PMA 10 ng/ml, 6 hours)
tripeptide-1	increases	+93%	increases	+20%	–	–	–
Cc1cc(=O)c2c(O)cc(O)cc2o1 [dihydroxymethyl chromone]	–	–	–	+20%	+28%	–	–
tetradecyl aminobutyroylvalylaminobutyric urea trifluoroacetate [TAUT]	increases	+64%	increases	+18%	–	inhibits	−100%
